Test results as given in patent publication US20050171139A1, “Treating psychotic symptoms” (priority 2003, published 2005).

Assay: PPI after repeated low-dose ropinirole
Format: in vivo
Details: same low doses as quinpirole

CCCN(CCC)CCc1cccc2c1CC(=O)N2 [ropinirole]
effect on PPI over time: acts like quinpirole to attenuate PPI symptoms over time
